For series [1], the target named is PD-1/PD-L1 (Homo sapiens (Human), UniProt Q9NZQ7). The series can be described thus: Homogeneous Time-Resolved Fluorescence (HTRF) PD-1/PD-L1 binding assay. Particulars: recombinant human PD-1 and PD-L1. Put shortly:
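Human PD-1 (25-167, Fc-tagged; 3 nM) and PD-L1 (19-238, His-tagged; 10 nM) were preincubated 40 min with inhibitors in PBS pH 7.4, 0.05% Tween-20, 0.1% BSA, 1% DMSO, at 25 °C. Eu-anti-human IgG (1 nM) and anti-His-APC (20 nM) were added for 60 min. The 665/620 nm HTRF ratio gave IC50 by curve fitting.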

In series [2] the test system is U2OS/PD-L1 cells and Jurkat-PD-1-SHP cells. The series can be described thus: Src homology region 2 domain-containing phosphatase (SHP) assay. Particulars: Homo sapiens, U2OS; PathHunter chemiluminescence, 2 hours. It counts as cell-based. Put shortly: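 U2OS/PD-L1 cells and Jurkat-PD-1-SHP cells, 5000 each, were co-incubated with compound for 2 h at 37 °C in RPMI with 1% FBS. PathHunter enzyme-fragment complementation chemiluminescence reported PD-1/SHP recruitment. IC50 was fitted from percent of DMSO-control activity versus log concentration.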

Series [3] concerns the target PD-L1 (Homo sapiens (Human), UniProt Q9NZQ7). The series can be described thus: PD-L1 whole blood internalization assay. Format: cell-based. Particulars: PD-L1 internalization in human whole blood, CD14+ cells, interferon γ, 24 hour.
Series [4] can be described thus: In vivo pharmacokinetics in rats. Particulars: rat, cassette dosing; for clearance / half-life / Vd / Cmax / AUC(0-inf): male, Sprague-Dawley, plasma; for clearance / half-life / Vd: 1.0 mg/kg IV; for Vd: read-out: Vss; for Cmax / AUC(0-inf) / F: 3.0 mg/kg PO; for AUC(0-inf): read-out: AUC0-inf. On the set-up: species or system Sprague Dawley rats.
The nature of series [5]: In vivo pharmacokinetics in monkeys. To be noted: cynomolgus monkey, cassette dosing; for clearance / half-life / Vd / AUC(0-inf) / Cmax: both sexes, plasma; for clearance / half-life / Vd: 1.0 mg/kg IV; for Vd: read-out: Vss; for AUC(0-inf) / Cmax / F: 3.0 mg/kg PO. As for the experimental part: For in vivo pharmacokinetic experiments, test compounds were administered to male Sprague Dawley rats or male and female Cynomolgus monkeys intravenously or via oral gavage. For intravenous (IV) dosing, test compounds were dosed at 0.5 to 1 mg/kg using a formulation of 10% dimethylacetamide (DMAC) in acidified saline via IV bolus for rat and 5 min or 10 min IV infusion for monkey. For oral (PO) dosing, test compounds were dosed at 1.0 to 3.0 mg/kg using 5% DMAC in 0.5% methylcellulose in citrate buffer (pH 3.5). Blood samples were collected at predose and various time points up to 24 hours postdose. All blood samples were collected using EDTA as the anticoagulant and centrifuged to obtain plasma samples. The plasma concentrations of test compounds were determined by LC-MS methods. The measured plasma concentrations were used to calculate PK parameters by standard noncompartmental methods using Phoenix® WinNonlin software program (version 7.0, Pharsight Corporation).
In rats and monkeys, cassette dosing of test compounds were conducted to obtain preliminary PK parameters.

Structures are written as SMILES.

Sequence of PD-1/PD-L1 (Q9NZQ7 19-238): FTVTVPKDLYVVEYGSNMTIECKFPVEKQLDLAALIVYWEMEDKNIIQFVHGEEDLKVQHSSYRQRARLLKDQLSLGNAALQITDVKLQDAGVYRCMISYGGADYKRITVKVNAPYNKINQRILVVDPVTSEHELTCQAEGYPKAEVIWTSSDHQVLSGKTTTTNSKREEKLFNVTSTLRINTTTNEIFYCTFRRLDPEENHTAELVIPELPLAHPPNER
Sequence of PD-L1 (Q9NZQ7 19-290): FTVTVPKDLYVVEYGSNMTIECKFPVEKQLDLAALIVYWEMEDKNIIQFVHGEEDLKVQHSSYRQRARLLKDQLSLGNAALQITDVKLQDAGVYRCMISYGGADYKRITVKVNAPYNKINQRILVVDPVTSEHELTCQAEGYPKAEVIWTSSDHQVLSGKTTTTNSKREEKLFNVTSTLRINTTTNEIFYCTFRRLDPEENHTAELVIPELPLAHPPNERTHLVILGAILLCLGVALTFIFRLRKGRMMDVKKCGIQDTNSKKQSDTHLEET

For `Cc1c(Nc2nc(C(F)F)nc3cc(CN4CC[C@@H](O)C4)cnc23)cccc1-c1cccc(NC(=O)c2nc3c(n2C)CCN(CCC24CCC(C(=O)O)(CC2)C4)C3)c1Cl` [Example 1, (R)-4-(2-(2-((2-chloro-3′-((2-(difluoromethyl)-7-((3-hydroxypyrrolidin-1-yl)methyl)pyrido[3,2-d]pyrimidin-4-yl)amino)-2′-methyl-[1,1′-biphenyl]-3-yl)carbamoyl)-1-methyl-1,4,6,7-tetrahydro-5H-imidazo[4,5-c]pyridin-5-yl)ethyl)bicyclo[2.2.1]heptane-1-carboxylic Acid], in series [1], the IC50 (as a rule, the concentration needed to halve the response being measured) turned out to be 2.2 nM. The IC50 in series [2] is 3 nM. For the same compound, the IC50 in series [3] turned out to be 7.9 nM. Besides, in series [4], the clearance – broadly, the rate of elimination divided by the concentration – was 6.15 mL/min/kg; the half-life (in general, how long it takes for the measured level to halve) is 4.4 h; the Vd is 1.75 L/kg; the peak level (Cmax) was 166 nM. In series [4], the AUC(0-inf) was determined as 1.4 µM·h and the F amounted to 14%. In addition, in series [5], the clearance is 4.25 mL/min/kg, the half-life is 6.35 h, the Vd turned out to be 1.01 L/kg and the AUC(0-inf) worked out at 8.24 µM·h. In addition, in series [5], the highest level (Cmax) was 794 nM and the F worked out at 59%.

`Cc1c(Nc2nc(C(F)F)nc3cc(CN4CC[C@@](C)(O)C4)cnc23)cccc1-c1cccc(NC(=O)c2nc3c(n2C)CCN(CCC24CCC(C(=O)O)(CC2)C4)C3)c1Cl` [Example 2, (R)-4-(2-(2-((2-chloro-3′-((2-(difluoromethyl)-7-((3-hydroxy-3-methylpyrrolidin-1-yl)methyl)pyrido[3,2-d]pyrimidin-4-yl)amino)-2′-methyl-[1,1′-biphenyl]-3-yl)carbamoyl)-1-methyl-1,4,6,7-tetrahydro-5H-imidazo[4,5-c]pyridin-5-yl)ethyl)bicyclo[2.2.1]heptane-1-carboxylic Acid]: the IC50 in series [1] was 1.5 nM. In addition, the IC50 in series [2] worked out at 3.9 nM. Inhibition in series [3] was half-maximal at 8 nM (IC50). In series [4], the clearance is 7.85 mL/min/kg; the half-life is 4.4 h; the Vd was 2.63 L/kg; the Cmax – broadly, the highest concentration seen after dosing – was 111 nM. Besides, in series [4], the AUC(0-inf) turned out to be 1.07 µM·h and the F turned out to be 14%. Besides, in series [5], the clearance was 4.78 mL/min/kg, the half-life is 6.23 h, the Vd worked out at 1.36 L/kg and the AUC(0-inf) amounted to 6.84 µM·h. In addition, in series [5], the peak level (Cmax) was 579 nM and the F turned out to be 57%.

On to `Cc1c(NC(=O)c2nc3c(n2C)CCN(CCC24CCC(C(=O)O)(CC2)C4)C3)cccc1-c1cccc(Nc2nc(C(F)F)nc3cc(CN4CC[C@@H](O)C4)cnc23)c1C` [Example 5, (R)-4-(2-(2-((3′-((2-(difluoromethyl)-7-((3-hydroxypyrrolidin-1-yl)methyl)pyrido[3,2-d]pyrimidin-4-yl)amino)-2,2′-dimethyl-[1,1′-biphenyl]-3-yl)carbamoyl)-1-methyl-1,4,6,7-tetrahydro-5H-imidazo[4,5-c]pyridin-5-yl)ethyl)bicyclo[2.2.1]heptane-1-carboxylic Acid], for which the IC50 in series [1] was 2.1 nM. The compound also showed an IC50 in series [2] of 4 nM. The compound further came in with an IC50 in series [3] of 60 nM. Also, in series [4], the clearance is 6.93 mL/min/kg, the half-life is 3.9 h, the Vd came out at 1.63 L/kg and the Cmax came out at 241 nM. Moreover, in series [4], the AUC(0-inf) was found to be 1.65 µM·h and the F came out at 19%. Also, in series [5], the clearance is 4.93 mL/min/kg, the half-life is 8.48 h, the Vd came to 1.14 L/kg and the AUC(0-inf) came to 11.1 µM·h. For the same compound, in series [5], the Cmax worked out at 1300 nM and the F is on record as 89%.

These data come from patent publication US11401279B2, “Pyrido[3,2-d]pyrimidine compounds as immunomodulators” (Incyte Corporation, priority 2019, dated 2022).
